Data from patent publication US9346764B2, “Imidazolidinedione compounds and their uses” (HINOVA PHARMACEUTICALS INC., priority 2011, dated 2016).
Like-named read-outs stand apart in the source and are kept apart here.

Legend:
[1] = test system: prostate specific antigen (PSA); assay: Inhibition of prostate specific antigen (PSA) in 22RV1 cells induced with R1881; type: cell-based; settings: Homo sapiens, 22Rv1, read-out: 22RV1 (IC50, nM)
Experimental: (§1) The in vitro biological activity of test compounds of the present invention as androgen receptor antagonist can be tested by the methods as reported in J. Medcinal Chemistry (2010, page 2779-2796 and WO201 1/029392).
(§2) The inhibition activity of these compounds on prostate specific antigen (PSA) was determined using prostate cancer cells (LNCaP and 22RV1). Prostate cancer cells (LNCaP and 22RV1) could be purchased from ATCC, USA. The expression of PSA in cells was induced with the artificially synthesized androgen R1881 (methyltrienolone, androgen receptor activator) to increase the sensitivity of inhibition experiment.

[2] = test system: prostate specific antigen (PSA); assay: Inhibition of prostate specific antigen (PSA) in LNCaP cells induced with R1881; type: cell-based; settings: Homo sapiens, read-out: LNCaP (IC50, nM)
Experimental: as §1, §2

[3] = test system: human prostate cancer LNCaP cells; assay: Inhibition of the growth of prostate cancer cells (MTT), LNCaP; type: cell-based
Experimental: (§3) The ability of compounds to inhibit the growth of prostate cancer cells was tested:
(§4) First, the human prostate cancer LNCaP (purchased from ATCC, USA) and 22RV1 (purchased from SIBS) cells were transferred to a RPMI1640 culture medium containing 10% charcoal-stripped fetal bovine serum (FBS). After cultured for three days, the cells were digested with 0.25% trypsin and counted through trypan blue staining. The cells were plated, with 100 μL cell suspension containing 5000 cells per well. 200 μL medium was added to the wells around the cell plate for avoiding edge effects.
(§5) The cell plate was placed in a cell incubator for 30 min, 10 μL of 4 nM R1881 was added into each well and homogeneously mixed. Upon the addition of R1881, the cell plate was placed in a cell incubator and incubated at 37° C., under 5% CO2 for 96 hours. Afterwards, 40 μL of MTT (prepared in PBS, concentration is 2.5 mg/mL) was added into each wells, and incubated at 37° C. for 2 hours. The supernatant was sucked off, and 100 μL of DMSO was added into each well. The plate was shaken by a vibrator for 10 min for dissolving formazan. The plate was read at 570 nm wavelength using a microplate reader in the unit of OD.

[4] = test system: human prostate cancer 22RV1 cells; assay: Inhibition of the growth of prostate cancer cells (MTT), 22RV1; type: cell-based
Experimental: as §3, §4, §5

[5] = Pharmacokinetic evaluation in mice; type: in vivo, Kunming mice (KM mice); settings: male KM mice, 10 mg/kg intragastrically; for Cmax / Tmax: Kunming (KM), mouse, plasma, po, DMSO:PEG400:H2O 1:5:14
Experimental: Compounds were dissolved in DMSO:PEG400:H2O 1:5:14. The volume of administration was 10 mL/kg. Before testing, the mice fasted for 12 h and drunk water ad libitum. Then, the mice were fed together at 2 h after administration. 0.3 mL of blood were took from 3 mice through retrobulbar venous plexus at 0.5, 1.0, 2.0, 4.0, 6.0 and 24 h after administration, placed in heparinized tubes, and centrifuged for 5 min at 11000 rpm. The plasma was separated and frozen in a refrigerator at −20° C. 100 uL of serum was transferred with a pipettor into a clean plastic centrifuge tube marked with compound's name and time point, and diluted with acetonitrile (CH3CN) and centrifuged. The concentration of drug was analyzed by LC-MS. Serum was stored at −80° C. before analysis.

[6] = Homo sapiens, LNCaP, 96 h, read-out: LNCaP (IC50, uM)
[7] = Homo sapiens, 22Rv1, 96 h, read-out: 22RV1 (IC50, uM)
[8] = Homo sapiens, growth inhibition, LNCaP cells, R1881 added, 96 hours, MTT, read-out: LNCaP (IC50)
[9] = Homo sapiens, growth inhibition, 22RV1 cells, R1881 added, 96 hours, MTT, read-out: 22RV1 (IC50)
[10] = growth inhibition, LNCaP cells, R1881 added, 96 hours, MTT, read-out: LNCaP (IC50)

SMILES	IC50 [1] [nM]	IC50 [2] [nM]	IC50 [3, 6] [µM]	IC50 [4, 7] [µM]	IC50 [3, 8] [µM]	IC50 [4, 9] [µM]	further results
CNC(=O)c1ccc(N2C(=S)N(c3ccc(C#N)c(C(F)(F)F)c3)C(=O)C23CCC3)cc1F [Example 1, reference compound]	< 2000	< 1000	4.09	26	–	–	–
CN(C)C(=O)c1ccc(N2C(=S)N(c3ccc(C#N)c(C(F)(F)F)c3)C(=O)C23CCC3)cc1F [Example 2]	< 1600	< 800	–	–	1.37	20.8	–
[2H]C([2H])([2H])NC(=O)c1ccc(N2C(=S)N(c3ccc(C#N)c(C(F)(F)F)c3)C(=O)C23CCC3)cc1F [Example 3]	< 1000	< 400	0.36	15	–	–	–
CNC(=O)c1ccc(N2C(=S)N(c3ccc(C#N)c(C(F)(F)F)c3)C(=O)C2(C)C)cc1F [Example 4, 4-{7-[4-cyano-3-(trifluoromethyl)phenyl]-5,5-dimethyl-4-oxo-2-thio-1-imidazolidinyl}-2-fluoro-N-methyl-benzamide, reference compound]	–	–	–	–	–	–	Cmax [5]: 8450 ng/mL; Tmax [5]: 6 h
CN(C)C(=O)c1ccc(N2C(=S)N(c3ccc(C#N)c(C(F)(F)F)c3)C(=O)C2(C)C)cc1F [Example 5, 4-{7-[4-cyano-3-(trifluoromethyl)phenyl]-5,5-dimethyl-4-oxo-2-thio-1-imidazolidinyl}-2-fluoro-N,N-dimethyl benzamide]	< 1600	< 800	–	–	2.07	23.4	–
[2H]C([2H])([2H])NC(=O)c1ccc(N2C(=S)N(c3ccc(C#N)c(C(F)(F)F)c3)C(=O)C2(C)C)cc1F [Example 6, 4-{7-[4-cyano-3-(trifluoromethyl)phenyl]-5,5-dimethyl-4-oxo-2-thio-1-imidazolidinyl}-2-fluoro-N-trideuteromethylbenzamide]	–	–	–	–	–	–	Cmax [5]: 10400 ng/mL; Tmax [5]: 6 h; AUC compared with undeuterated compound 17 [5]: significantly increased; Cmax increase compared with undeuterated compound 17 [5]: at least 20%
[2H]c1cc(N2C(=S)N(c3ccc(C#N)c(C(F)(F)F)c3)C(=O)C2(C)C)ccc1C(=O)NC [Example 11, 4-{7-[4-cyano-3-(trifluoromethyl)phenyl]-5,5-dimethyl-4-oxo-2-thio-1-imidazolidinyl}-2-deutero-N-methyl benzamide]	–	–	1.75	18.9	–	–	–
CNC(=O)c1ccc(N2C(=S)N(c3ccc(C#N)c(C(F)(F)F)c3)C(=O)C2(C)C)cc1 [Example 12, 4-{7-[4-cyano-3-(trifluoromethyl)phenyl]-5,5-dimethyl-4-oxo-2-thio-1-imidazolidinyl}-2-deutero-N-trideuteromethyl benzamide]	–	–	–	–	–	–	IC50 [3, 10]: 2.42 µM; IC50 ([4]; growth inhibition, 22RV1 cells, R1881 added, 96 hours, MTT, read-out: 22RV1 (IC50)): 25.8 µM
CNC(=O)c1ccc(N2C(=S)N(c3ccc(C#N)c(C(F)(F)F)c3)C(=O)C2(C)C)cc1F [Example 14, 4-{7-[4-cyano-3-trifluoromethyl-2,6-dideuterophenyl]-5,5-dimethyl-4-oxo-2-thio-1-imidazolidinyl}-2-fluoro-N-trideuteromethyl benzamide]	–	–	–	–	–	–	IC50 [3, 10]: 1.5 µM
CC(O)(CS(=O)(=O)c1ccc(F)cc1)C(=O)Nc1ccc(C#N)c(C(F)(F)F)c1 (centres unmarked) [bicalutamide, reference compound]	–	–	–	–	18.4	30.9	–
